Measurements: PMC12649549, “Sequence Permutation Generated Lysine and Tryptophan-Rich Antimicrobial Peptides with Enhanced Therapeutic Index” (Antibiotics, 2025)
Like-named read-outs stand apart in the source and are kept apart here.

Legend:
[1] = test system: A. baumannii 14B00100 (Acinetobacter sp., BCRC number 14B0100)
Experimental: (§1) The antibacterial and salt-resistant activity of the peptides was tested using Escherichia coli (ATCC 25922), Pseudomonas aeruginosa Migula (ATCC 27853), Acinetobacter sp. (BCRC number 14B0091, BCRC number 14B0097, and BCRC number 14B0100), and Staphylococcus aureus sp. strains (ATCC 25923, ATCC 33591, ATCC 33592, ATCC 33593, and ATCC 6538). All bacteria were obtained from the Food Industry Research and Development Institute (Hsinchu, Taiwan) and cultured in sterilized Müller-Hinton (MH) broth at 37 °C and 200 rpm for 8 h. The inoculum concentrations were determined by measuring the optical density at 600 nm (OD 600 = 1, approximately 10^8 CFU/mL) using an Ultrospec 2100 pro UV-Visible spectrophotometer (Biochrom Ltd., Cambridge, UK) after 8 h of culture.
(§2) The antibacterial activities of the peptides in Müller-Hinton (MH) broth and modified LYM broth were determined using the standard broth microdilution method as per Clinical and Laboratory Standards Institute (CLSI) guidelines. The LYM broth was prepared with specific components and adjusted to different conditions, including varying concentrations of NaCl and MgCl2, and different pH levels. To prepare the LYM broth, 5.4 mM KCl, 5.6 mM Na2HPO4, 0.5 mM MgSO4, and 1.0 mM sodium citrate were added. Additionally, 0.4 mg of ZnCl2, 2.0 mg of FeCl3·6H2O, 0.1 mg of CuSO4·5H2O, 0.1 mg of MnSO4·H2O, 0.1 mg of Na2B4O7∙10H2O, 700 mg of amino acid mixtures without tryptophan (Takara Bio Inc., San Jose, CA, USA), and 20 mg of L-tryptophan were added per liter of medium. The pH was adjusted to 7.4, and a vitamin mixture (100X, Sigma) and glucose concentration of 2% were added. For different conditions of LYM broth, NaCl concentrations of 300, 200, 150, and 50 mM, MgCl2 concentrations of 2.5, 1.5, and 0.5 mM, and pH levels of 6.5, 5.5, and 4.5 were adjusted. Bacterial strains were incubated in MH broth overnight, regrown, and diluted to a final concentration of 5 × 10^5 CFU/mL. Peptides were added to each well at final concentrations of 50, 25, 12.5, 6.25, 3.13, 1.56, and 0.78 µg/mL, and 99 µL of diluted microbes was loaded into each well of a polypropylene 96-well plate. […] The Morpheus HeatMap software (https://software.broadinstitute.org/morpheus/) was used to display MIC values on a color scale. All experiments were independently repeated three times.

[2] = test system: A. baumannii 14B0091 (Acinetobacter sp., BCRC number 14B0091)
Experimental: as §1, §2

[3] = test system: A. baumannii 14B0097 (Acinetobacter sp., BCRC number 14B0097)
Experimental: as §1, §2

[4] = test system: Escherichia coli (ATCC 25922)
Experimental: as §1, §2

S. aureus ATCC 25923 = test system: S. aureus ATCC 25923
Experimental: as §1, §2

S. aureus ATCC 6538 = test system: S. aureus ATCC 6538
Experimental: as §1, §2

Gram-negative bacteria = test: Geometric mean MIC and therapeutic index, Gram-negative bacteria; type: cell-based; details: Gram-negative bacteria
Experimental: (§3) In this study, we aimed to investigate the potential of W5K series peptides for therapeutic use. To evaluate their efficacy for antibacterial therapy, we used the Therapeutic Index (TI) as a measure of their cell selectivity. The TI was calculated as the ratio of the concentration causing 10% hemolysis of human red blood cells (HC10) to the geometric mean minimum inhibitory concentration (GM) of the peptides against both Gram-negative and Gram-positive bacteria. This parameter was used to quantitatively assess the balance between antibacterial potency and cytotoxicity among the W5K derivatives.
as §2

Gram-positive bacteria = test: Geometric mean MIC and therapeutic index, Gram-positive bacteria; type: cell-based; details: Gram-positive bacteria
Experimental: as §3, §2

[5] = LYM broth, 0 mM NaCl, 16 h, 37 °C
[6] = LYM broth, 50 mM NaCl, 16 h, 37 °C
[7] = LYM broth, 100 mM NaCl, 16 h, 37 °C
[8] = LYM broth, 200 mM (NaCl), 16 h, 37 °C
[9] = LYM broth, 300 mM (NaCl), 16 h, 37 °C
[10] = MH broth, 5 × 10^5 CFU/mL, 16 h, 37 °C, repeated three times
[11] = MH broth, MIC >50 µg/mL counted as 100 µg/mL

Ac-KWLAKKKKWRKWL-NH2 [Peptide W5K07]
MIC [1, 5]: 3.13 µg/mL | MIC ([1]; LYM broth, 0.5 mM MgCl2): 3.13 µg/mL | MIC ([1]; LYM broth, 1.5 mM MgCl2): 3.13 µg/mL | MIC ([1]; LYM broth, 2.5 mM MgCl2): 3.13 µg/mL | MIC [1, 6]: 6.25 µg/mL | MIC [1, 7]: 6.25 µg/mL | MIC [1, 8]: 25 µg/mL | MIC [1, 9]: 50 µg/mL | MIC ([1]; LYM broth, pH 4.5): 3.13 µg/mL | MIC ([1]; LYM broth, pH 5.5): 3.13 µg/mL | MIC ([1]; LYM broth, pH 6.5): 3.13 µg/mL | MIC [1, 10]: 12.5 µg/mL | MIC [2, 5]: 3.13 µg/mL | MIC ([2]; LYM broth, 0.5 mM MgCl2): 3.13 µg/mL | MIC ([2]; LYM broth, 1.5 mM MgCl2): 3.13 µg/mL | MIC ([2]; LYM broth, 2.5 mM MgCl2): 3.13 µg/mL | MIC [2, 6]: 6.25 µg/mL | MIC [2, 7]: 6.25 µg/mL | MIC [2, 8]: 50 µg/mL | MIC [2, 9]: >50 µg/mL | MIC ([2]; LYM broth, pH 4.5): 6.25 µg/mL | MIC ([2]; LYM broth, pH 5.5): 3.13 µg/mL | MIC ([2]; LYM broth, pH 6.5): 3.13 µg/mL | MIC [2, 10]: 12.5 µg/mL | MIC [3, 5]: 3.13 µg/mL | MIC ([3]; LYM broth, 0.5 mM MgCl2): 3.13 µg/mL | MIC ([3]; LYM broth, 1.5 mM MgCl2): 3.13 µg/mL | MIC ([3]; LYM broth, 2.5 mM MgCl2): 3.13 µg/mL | MIC [3, 6]: 6.25 µg/mL | MIC [3, 7]: 12.5 µg/mL | MIC [3, 8]: 50 µg/mL | MIC [3, 9]: >50 µg/mL | MIC ([3]; LYM broth, pH 4.5): 3.13 µg/mL | MIC ([3]; LYM broth, pH 5.5): 3.13 µg/mL | MIC ([3]; LYM broth, pH 6.5): 3.13 µg/mL | MIC [3, 10]: 12.5 µg/mL | MIC [4, 5]: 12.5 µg/mL | MIC ([4]; LYM broth, 0.5 mM MgCl2): 12.5 µg/mL | MIC ([4]; LYM broth, 1.5 mM MgCl2): 25 µg/mL | MIC ([4]; LYM broth, 2.5 mM MgCl2): 25 µg/mL | MIC [4, 6]: 25 µg/mL | MIC [4, 7]: 50 µg/mL | MIC [4, 8]: >50 µg/mL | MIC [4, 9]: >50 µg/mL | MIC ([4]; LYM broth, pH 4.5): 12.5 µg/mL | MIC ([4]; LYM broth, pH 5.5): 6.25 µg/mL | MIC ([4]; LYM broth, pH 6.5): 6.25 µg/mL | MIC [4, 10]: 50 µg/mL | MIC (S. aureus ATCC 25923; [5]): 6.25 µg/mL | MIC (S. aureus ATCC 25923; LYM broth, 0.5 mM MgCl2): 6.25 µg/mL | MIC (S. aureus ATCC 25923; LYM broth, 1.5 mM MgCl2): 12.5 µg/mL | MIC (S. aureus ATCC 25923; LYM broth, 2.5 mM MgCl2): 12.5 µg/mL | MIC (S. aureus ATCC 25923; [6]): 12.5 µg/mL | MIC (S. aureus ATCC 25923; [7]): 25 µg/mL | MIC (S. aureus ATCC 25923; [8]): 50 µg/mL | MIC (S. aureus ATCC 25923; [9]): >50 µg/mL | MIC (S. aureus ATCC 25923; LYM broth, pH 4.5): 12.5 µg/mL | MIC (S. aureus ATCC 25923; LYM broth, pH 5.5): 6.25 µg/mL | MIC (S. aureus ATCC 25923; LYM broth, pH 6.5): 3.13 µg/mL | MIC (S. aureus ATCC 25923; [10]): 50 µg/mL | MIC (S. aureus ATCC 6538; [5]): 6.25 µg/mL | MIC (S. aureus ATCC 6538; LYM broth, 0.5 mM MgCl2): 3.13 µg/mL | MIC (S. aureus ATCC 6538; LYM broth, 1.5 mM MgCl2): 6.25 µg/mL | MIC (S. aureus ATCC 6538; LYM broth, 2.5 mM MgCl2): 6.25 µg/mL | MIC (S. aureus ATCC 6538; [6]): 12.5 µg/mL | MIC (S. aureus ATCC 6538; [7]): 12.5 µg/mL | MIC (S. aureus ATCC 6538; [8]): 50 µg/mL | MIC (S. aureus ATCC 6538; [9]): >50 µg/mL | MIC (S. aureus ATCC 6538; LYM broth, pH 4.5): 6.25 µg/mL | MIC (S. aureus ATCC 6538; LYM broth, pH 5.5): 6.25 µg/mL | MIC (S. aureus ATCC 6538; LYM broth, pH 6.5): 3.13 µg/mL | MIC (S. aureus ATCC 6538; [10]): >50 µg/mL | GM G− (geometric mean of the MIC values) (Gram-negative bacteria; [11]): 21.8 µg/mL | Therapeutic Index (TI) G− (Gram-negative bacteria; HC10/GM): 5.0 | GM G+ (geometric mean of the MIC values) (Gram-positive bacteria; [11]): 87.1 µg/mL | Therapeutic Index (TI) G+ (Gram-positive bacteria; HC10/GM): 1.2
